The values that follow come from US4931443A, “Piperazine compound and pharmaceutical use thereof” (Yoshitomi Pharmaceutical Industries, Ltd., priority 1986, dated 1990).

In data set [1] the test system is serotonin-induced head-twitch. In words: Experiment 2 Anti-serotonin action (head-twitch method in mice). Type of data set: in vivo, male dd-strain mice. The conditions noted are these: Mus musculus, po; serotonin 40 μg/0.02 ml i.c.v. 1 h after compound; head-twitch counted 5 min; probit method. The procedure: Experiment 2 Anti-serotonin action (head-twitch method in mice)
Groups of 8-30 male dd-strain mice were used. The test compounds were orally administered and an hour later, 40 μg/0.02 ml of serotonin was intracerebroventricularly administered. Ten minutes thereafter, the numbers of head-twitch were measured for 5 minutes. The ED50 values calculated by the probit method considering the number of head-twitch induced by the administration of serotonin with less than once as the inhibitory action by the test compound.

For another data set, the target named is T1, serotonin-2 receptor (Rattus norvegicus, UniProt P14842).
T1 construct: from tissue; host or cells: rat cerebral cortex, synaptosomal membranes
In words: Affinity for serotonin-2 receptor: 3H-spiperone binding assay. The conditions noted are these: rat cerebral cortex synaptosomal membranes; 3H-spiperone 0.5 nM; 37° C., 20 min. The method, then: (§1) Experiment 3 Affinity for serotonin receptor
(2) Affinity for serotonin-2 receptor: ^3 H-spiperone bindig assay
The preparation of synaptosomal membranes and binding assay were performed according to the method of Peroutka and Snyder (Molecular Pharmacology, vol. 16, p. 687, 1979).
Rat cerebral cortex which was maintained in a freezed state was homogenized in 20-fold volumes of ice-cold 0.32 M sucrose and centrifugated at 1,000 g for 10 minutes at 0° C. The supernatant was centrifugated at 50,000 g for 15 minutes at 0° C. The obtained pellets were homogenized in 20-fold volumes of ice-cold 50 mM Tris-HCl buffer (pH 7.5). The mixture was incubated at 37° C. for 10 minutes, and further centrifugated at 50,000 g for 15 minutes at 0° C. The suspension of synaptosomal membrane was prepared by homogenizing the obtained pellets in 60-fold volumes of the buffer mentioned above containing 1.1 mM ascorbic acid, 4 mM calcium chloride and 10 μM pargyline.
To 900 μl of the suspension of synaptosomal membrane were added 50 μl of ^3 H-spiperone (final concentration : 0.5 nM) and 50 μl of the test compound solution or the solvent, and then incubated at 37° C. for 20 minutes. After the completion of incubation, 5 ml of ice-cold buffer as mentioned above was added. Immediately thereafter, the mixture was filtered with suction through Whatman GF/B filter. The filter was washed twice with 5 ml of the same buffer as mentioned above and the radioactivity on the filter was measured by a liquid scintillation counter.

In the next data set the target is T2, serotonin-1 receptor (Rattus norvegicus, UniProt P19327).
T2 sequence (P19327 1-422): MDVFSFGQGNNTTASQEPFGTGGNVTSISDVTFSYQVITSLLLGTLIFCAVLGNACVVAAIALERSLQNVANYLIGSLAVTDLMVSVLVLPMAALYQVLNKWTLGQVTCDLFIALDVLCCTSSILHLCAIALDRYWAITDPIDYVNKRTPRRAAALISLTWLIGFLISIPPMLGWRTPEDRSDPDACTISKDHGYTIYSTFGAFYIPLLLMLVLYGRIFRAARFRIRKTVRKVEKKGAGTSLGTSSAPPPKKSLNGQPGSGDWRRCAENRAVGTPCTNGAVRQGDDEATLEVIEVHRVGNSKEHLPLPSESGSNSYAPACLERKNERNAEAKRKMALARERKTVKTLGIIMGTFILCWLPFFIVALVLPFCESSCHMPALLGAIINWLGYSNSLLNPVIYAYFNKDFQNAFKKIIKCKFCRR
Kind of data set: Affinity for serotonin-1 receptor: 3H-8-OH-DPAT binding assay. The conditions noted are these: rat hippocampus synaptosomal membranes; 3H-8-OH-DPAT 0.2 nM; pH 7.4, 37° C., 10 min. The procedure:
as §1
(1) Affinity for serotonin-1 receptor: ^3 H-8-hydroxy-2-(dipropylamino)tetralin(^3 H-8-OH-DPAT) binding assay
Preparation of synaptosomal membranes and ^3 H-8-OH-DPAT binding assay were performed according to the method of Hall et al(Journal of Neurochemistry, vol. 44, p. 1685, 1985).
Rat hyppocampus which was maintained in a freezed state was homogenized in 40-fold volumes of ice-cold 50 mM Tris-HCl buffer (pH 7.4) and centrifugated at 500 g for 10 minutes at 0° C. Further, the supernatant was centrifugated at 40,000 g for 20 minutes at 0° C. and the pellets thus obtained were homogenized in 40-fold volumes of the same buffer as mentioned above, and then incubated at 37° C. for 10 minutes. After incubation, the suspension was centrifugated at 40,000 g for 20 minutes at 0° C. The obtained pellets were washed by repeating twice the procedures of homogenization in the above-mentioned buffer and centrifugation. The suspension of synaptosomal membranes was prepared by homogenizing the pellets finally obtained in 60-fold volumes of 50 mM Tris-HCl buffer (pH 7.4) containing 1 mM manganese chloride.
To 900 μl of the membrane suspension were added 50 μl of ^3 H-8-OH-DPAT solution (final concentration: 0.2 nM), and 50 μl of the test compound solution or the solvent and the mixture was incubated at 37° C. for 10 minutes. After incubation, 5 ml of ice-cold 50 mM Tris-HCl buffer (pH 7.4) was added, and immediately thereafter, the mixture was filtered with suction through Whatman GF/B filter. The filter was washed twice with 5 ml of the same buffer as mentioned above and the radioactivity on the filter was measured by a liquid scintillation counter.

In data set [2] the test system is apomorphine-induced motility. In words: Experiment 1 Anti-apomorphine action (motility, Varimex). It counts as in vivo, male dd-strain mice. The conditions noted are these: Mus musculus, po; apomorphine 0.5 mg/kg s.c. 1 h after compound; motility 20 min; dose lowering motility of control by 50%. The procedure: Experiment 1 Anti-apomorphine action
Groups of 3 male dd-strain mice (4 groups/dose) were used. Test compounds were orally administered and an hour later, 0.5 mg/kg of apomorphine was subcutaneously administered. Immediately thereafter, motility was measured with the aid of Varimex (manufactured by Columbus Co.) for 20 minutes. The ED50 values, the dose of test compound required to lower the motility of the control group by 50%, were graphically calculated.

A further data set has as its system catalepsy. In words: Experiment 4 Cataleptogenic action. Type of data set: in vivo, female Wistar-strain rats. The conditions noted are these: rats, index of extrapyramidal side effects. The procedure:
(§2) Then, the cataleptogenic action of the compound of Example 15 was studied for the purpose of measuring the degree of the extrapyramidal side effect. […]
(§3) Experiment 4 Cataleptogenic action
(§4) Groups of 10 female Wistar-strain rats were used. Catalepsy was measured by the partly modified method of Simon et al (Journal of Pharmacy and Pharmacology, vol. 22, P. 546, 1970). The front paws of the rats were placed gently on a vertical grid (4 mm diameter, 9 cm height).
(§5) After the compound of Example 15 was orally administered, catalepsy was measured with the passage of time in 9 hours.

Data set [3] can be described thus: Experiment 4 Cataleptogenic action. It counts as in vivo, female Wistar-strain rats. The conditions noted are these: rat, in vivo, po; orally; peak time of catalepsy within 9 hours; probit method. The method, then:
as §2, §3, §4, §5

T1 sequence (P14842 whole entry): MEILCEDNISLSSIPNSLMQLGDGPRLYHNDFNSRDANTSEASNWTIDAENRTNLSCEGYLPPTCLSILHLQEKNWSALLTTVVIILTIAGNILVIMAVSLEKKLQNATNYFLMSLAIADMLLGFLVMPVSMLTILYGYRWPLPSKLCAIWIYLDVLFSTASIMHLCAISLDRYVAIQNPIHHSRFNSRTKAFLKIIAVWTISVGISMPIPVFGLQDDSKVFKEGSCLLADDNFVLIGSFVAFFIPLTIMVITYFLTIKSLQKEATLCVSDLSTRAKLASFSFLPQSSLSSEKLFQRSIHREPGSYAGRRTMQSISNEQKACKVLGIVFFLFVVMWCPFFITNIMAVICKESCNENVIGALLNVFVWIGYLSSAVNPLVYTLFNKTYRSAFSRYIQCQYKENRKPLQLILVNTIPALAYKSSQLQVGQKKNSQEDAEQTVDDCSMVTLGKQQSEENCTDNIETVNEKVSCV

`Cc1cccc(N2CCN(CCCCc3ccc(C4CCC(=O)N4)cc3)CC2)c1` (centres unmarked) [Example 1, 5-[4-(4-(4-(3-methylphenyl)piperazin-1-yl)butyl)phenyl]pyrrolidin-2-one]: the median effective dose (ED50) in data set [1] amounted to 0.53 mg/kg; in data set [2] it was 13 mg/kg. Further, the values for the inhibitory constant (Ki) on serotonin-2 receptor and at serotonin-1 receptor were 23 nM and 0.61 nM, respectively.
In the same order, the values of `Cl.O=C1CCC(c2ccc(CCN3CCN(c4cccc(C(F)(F)F)c4)CC3)cc2)N1` (centres unmarked) [Example 2, 5-[4-(2-(4-(3-trifluoromethylphenyl)piperazin-1-yl)ethyl)phenyl]pyrrolidin-2-one hydrochloride] are 0.15 mg/kg, 15 mg/kg, 78 nM and 0.31 nM.
Turning to `O=C1CCC(c2ccc(CCCCN3CCN(c4ccc(F)cc4)CC3)cc2)N1` (centres unmarked) [Example 6, 5-[4-(4-(4-(4-fluorophenyl)piperazin-1-yl)butyl)phenyl]pyrrolidin-2-one], the median effective dose (ED50) in data set [1] was 2.2 mg/kg; in data set [2] it was 4.2 mg/kg. For the same compound, the inhibitory constant (Ki) at serotonin-2 receptor turned out to be 66 nM; at serotonin-1 receptor it was 4.7 nM.
As for `COc1ccccc1N1CCN(CCCCc2ccc(C3CCC(=O)N3)cc2)CC1` (centres unmarked) [Example 7, 5-[4-(4-(4-(2-methoxyphenyl)piperazin-1-yl)butyl)phenyl]pyrrolidin-2-one], the 50% effective dose (ED50) in data set [1] was determined as 3.5 mg/kg; in data set [2], 2.1 mg/kg. Also, the Ki on serotonin-2 receptor is 480 nM; on serotonin-1 receptor, 0.28 nM.
In the same order, the values of `O=C1CCC(c2ccc(CCCN3CCN(c4ccccc4)CC3)cc2)N1` (centres unmarked) [Example 9, 5-[4-(3-(4-phenylpiperazin-1-yl)propyl)phenyl]pyrrolidin-2-one] are 2.4 mg/kg, 9.5 mg/kg, 250 nM and 4.5 nM.
Consider `Cl.Cl.O=C1CCC(c2ccc(CCCCN3CCN(c4cccc(C(F)(F)F)c4)CC3)cc2)N1` (centres unmarked) [Example 15, 5-[4-(4-(4-(3-trifluoromethylphenyl)piperazin-1-yl)butyl)phenyl]pyrrolidin-2-one dihydrochloride], for which the ED50 in data set [1] was found to be 0.32 mg/kg; in data set [3], 250 mg/kg; in data set [2], 4.2 mg/kg. The “cataleptogenic action (in words)” value in the data set with catalepsy is recorded as “very weak cataleptic action”. Moreover, the Ki at serotonin-2 receptor turned out to be 63 nM; at serotonin-1 receptor, 0.4 nM.
